Results filed as inconclusive are left out.
Tested on: MX-1 breast xenograft, nude mice, tumor weight T/C
Assay: NCI In Vivo Anticancer Drug Screen. Data for tumor model Human Mammary Carcinoma MX-1 Xenograft (intrarenal inoculation) in NU/NU Swiss (nude) mice
Conditions: endpoint: mean tumor weight change, higher = larger tumour
Outline: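 Read-out: treated (T) over vehicle control (C) ratio of survival or tumor size. Dosing in animals carrying the transplanted tumor.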

[1] = dose: 150.0 mg/kg/injection, schedule: Q04DX003 (sc), vehicle: saline with Tween-80
[2] = dose: 300.0 mg/kg/injection, schedule: Q04DX003 (sc), vehicle: saline with Tween-80
[3] = dose: 600.0 mg/kg/injection, schedule: Q04DX003 (sc), vehicle: saline with Tween-80
[4] = dose: 1200.0 mg/kg/injection, schedule: Q04DX003 (sc), vehicle: saline with Tween-80
[5] = dose: 75.0 mg/kg/injection, schedule: Q04DX003 (sc), vehicle: water
[6] = dose: 150.0 mg/kg/injection, schedule: Q04DX003 (sc), vehicle: water
[7] = dose: 300.0 mg/kg/injection, schedule: Q04DX003 (sc), vehicle: water
[8] = dose: 25.0 mg/kg/injection, schedule: Q01DX010 (sc), vehicle: saline with Tween-80
[9] = dose: 50.0 mg/kg/injection, schedule: Q01DX010 (sc), vehicle: saline with Tween-80
[10] = dose: 150.0 mg/kg/injection, schedule: Q04DX003 (sc), vehicle: Klucel (hydroxypropylcellulose) (HPC)
[11] = dose: 600.0 mg/kg/injection, schedule: Q04DX003 (sc), vehicle: Klucel (hydroxypropylcellulose) (HPC)

## CNc1nc(NC)nc(NC)n1
dose: 25.0 mg/kg/injection, schedule: Q01DX010 (ip), vehicle: Klucel (hydroxypropylcellulose) (HPC)
  T/C: 164 % of control
dose: 100.0 mg/kg/injection, schedule: Q01DX010 (ip), vehicle: Klucel (hydroxypropylcellulose) (HPC)
  T/C: 61 % of control
dose: 100.0 mg/kg/injection, schedule: Q01DX010 (sc), vehicle: Klucel (hydroxypropylcellulose) (HPC)
  T/C: 93 % of control
dose: 200.0 mg/kg/injection, schedule: Q01DX010 (ip), vehicle: Klucel (hydroxypropylcellulose) (HPC)
  T/C: 40 % of control

## CC1=C(O)C(=O)[C@@H]2O[C@@H]2C1=O
dose: 2.35 mg/kg/injection, schedule: Q04DX003 (sc), vehicle: saline
  T/C: 86 % of control
dose: 4.69 mg/kg/injection, schedule: Q04DX003 (sc), vehicle: saline
  T/C: 82 % of control
dose: 9.38 mg/kg/injection, schedule: Q04DX003 (sc), vehicle: saline
  T/C: 119 % of control
dose: 18.75 mg/kg/injection, schedule: Q04DX003 (sc), vehicle: saline
  T/C: 63 % of control

## CC(/C=C/c1ccccc1)=Nc1ccccc1
[1]
  T/C: 71 % of control
[2]
  T/C: 83 % of control
[3]
  T/C: 69 % of control
[4]
  T/C: 93 % of control

## Cn1ccc(=Nc2ccc(NC(=O)c3ccc(N=c4ccn(C)c5ccc([N+](=O)[O-])cc45)cc3[N+](=O)[O-])cc2)cc1
dose: 300.0 mg/kg/injection, schedule: Q04DX003 (sc), vehicle: saline + Tween-80 + alcohol
  T/C: 123 % of control
dose: 1200.0 mg/kg/injection, schedule: Q04DX003 (sc), vehicle: saline + Tween-80 + alcohol
  T/C: 117 % of control
dose: 2400.0 mg/kg/injection, schedule: Q04DX003 (sc), vehicle: saline + Tween-80 + alcohol
  T/C: 69 % of control

## N=C(N)c1ccc(/C=C/c2ccc(C(=N)N)cc2O)cc1
dose: 37.5 mg/kg/injection, schedule: Q04DX003 (sc), vehicle: water
  T/C: 87 % of control
[5]
  T/C: 83 % of control
[6]
  T/C: 89 % of control
[7]
  T/C: 77 % of control

## CCC1=C2C(=O)c3ccccc3C2=C(C)S(=O)(=O)O1
[2]
  T/C: 122 % of control
[3]
  T/C: 104 % of control
[4]
  T/C: 106 % of control

## CC1(C)OCC(CO)(Nc2nc(N3CC3)nc(N3CC3)n2)CO1
dose: 2.5 mg/kg/injection, schedule: Q01DX010 (sc), vehicle: saline
  T/C: -75 % of control

## Cn1c(=O)[nH]c2nncnc2c1=O
dose: 125.0 mg/kg/injection, schedule: Q04DX003 (sc), vehicle: water
  T/C: 92 % of control

## COc1cc(NCc2ccc3nc(N)nc(N)c3c2C)cc(OC)c1OC
dose: 1.25 mg/kg/injection, schedule: Q01DX010 (sc), vehicle: sodium bicarbonate
  T/C: 70 % of control
dose: 2.5 mg/kg/injection, schedule: Q01DX010 (sc), vehicle: sodium bicarbonate
  T/C: 46 % of control
dose: 20.0 mg/kg/injection, schedule: Q01DX010 (sc), vehicle: sodium bicarbonate
  T/C: 97 % of control
[5]
  T/C: 115 % of control
[6]
  T/C: 108 % of control
[7]
  T/C: 112 % of control

## Nc1ccc(Cl)cc1N
dose: 450.0 mg/kg/injection, schedule: Q04DX003 (sc), vehicle: saline with Tween-80
  T/C: 116 % of control
dose: 900.0 mg/kg/injection, schedule: Q04DX003 (sc), vehicle: saline with Tween-80
  T/C: 73 % of control
dose: 1800.0 mg/kg/injection, schedule: Q04DX003 (sc), vehicle: saline with Tween-80
  T/C: 71 % of control

## c1ccc2c(c1)nnn1c3cnccc3nc21
dose: 12.5 mg/kg/injection, schedule: Q01DX010 (sc), vehicle: saline with Tween-80
  T/C: 36 % of control
[8]
  T/C: 86 % of control
[9]
  T/C: 63 % of control

## O=NN(CCCl)C(=O)NC1OC(CO)C(O)C(O)C1O (configuration not stated)
dose: 5.0 mg/kg/injection, schedule: Q04DX003 (sc), vehicle: saline
  T/C: 91 % of control
dose: 10.0 mg/kg/injection, schedule: Q04DX003 (sc), vehicle: saline
  T/C: 69 % of control
dose: 20.0 mg/kg/injection, schedule: Q04DX003 (sc), vehicle: saline
  T/C: 40 % of control

## COc1ccc2[nH]c3c(c2c1)CCNC3CC(C)CCC=C(C)C (configuration not stated)
dose: 75.0 mg/kg/injection, schedule: Q04DX003 (sc), vehicle: Klucel (hydroxypropylcellulose) (HPC)
  T/C: 114 % of control
[10]
  T/C: 119 % of control

## CC12CC(C(=O)O)C3(O)CC(C)(C1)CC(C)(C2)C3 (configuration not stated) (tested in a mixture with another compound)
dose: 300.0 mg/kg/injection, schedule: Q04DX003 (sc), vehicle: Klucel (hydroxypropylcellulose) (HPC)
  T/C: 87 % of control
[11]
  T/C: 168 % of control
dose: 1200.0 mg/kg/injection, schedule: Q04DX003 (sc), vehicle: Klucel (hydroxypropylcellulose) (HPC)
  T/C: 102 % of control

## Nc1ncnc2c1ccn2C1OC(CO)C(O)C1O (configuration not stated)
dose: 1.0 mg/kg/injection, schedule: Q01DX010 (sc), vehicle: Klucel (hydroxypropylcellulose) (HPC)
  T/C: 101 % of control
dose: 2.0 mg/kg/injection, schedule: Q01DX010 (sc), vehicle: Klucel (hydroxypropylcellulose) (HPC)
  T/C: 157 % of control
dose: 4.0 mg/kg/injection, schedule: Q01DX010 (sc), vehicle: Klucel (hydroxypropylcellulose) (HPC)
  T/C: 75 % of control

## COCC(O)Cn1ccnc1[N+](=O)[O-] (configuration not stated)
dose: 300.0 mg/kg/injection, schedule: Q04DX003 (sc), vehicle: suspension in saline
  T/C: 202 % of control
dose: 600.0 mg/kg/injection, schedule: Q04DX003 (sc), vehicle: suspension in saline
  T/C: 95 % of control
dose: 1200.0 mg/kg/injection, schedule: Q04DX003 (sc), vehicle: suspension in saline
  T/C: 108 % of control

## COc1ccc2nc3cc(Cl)ccc3c(NCCNCCNCCNc3c4ccc(Cl)cc4nc4ccc(OC)cc34)c2c1
[8]
  T/C: 74 % of control
[9]
  T/C: 78 % of control
dose: 100.0 mg/kg/injection, schedule: Q01DX010 (sc), vehicle: saline with Tween-80
  T/C: 115 % of control
dose: 200.0 mg/kg/injection, schedule: Q01DX010 (sc), vehicle: saline with Tween-80
  T/C: 80 % of control

## c1csc(C[N+]23CN4CN(CN(C4)C2)C3)c1
dose: 100.0 mg/kg/injection, schedule: Q04DX003 (sc), vehicle: saline
  T/C: 108 % of control
dose: 400.0 mg/kg/injection, schedule: Q04DX003 (sc), vehicle: saline
  T/C: 93 % of control

## CC1c2ccccc2CC(CCN(C)C)c2ccccc21 (configuration not stated)
dose: 9.37 mg/kg/injection, schedule: Q04DX003 (sc), vehicle: saline with Tween-80
  T/C: 101 % of control
dose: 12.5 mg/kg/injection, schedule: Q04DX003 (sc), vehicle: saline with Tween-80
  T/C: 63 % of control
dose: 18.75 mg/kg/injection, schedule: Q04DX003 (sc), vehicle: saline with Tween-80
  T/C: 83 % of control
dose: 25.0 mg/kg/injection, schedule: Q04DX003 (sc), vehicle: saline with Tween-80
  T/C: 54 % of control
dose: 37.5 mg/kg/injection, schedule: Q04DX003 (sc), vehicle: saline with Tween-80
  T/C: 52 % of control
dose: 50.0 mg/kg/injection, schedule: Q04DX003 (sc), vehicle: saline with Tween-80
  T/C: 65 % of control
dose: 75.0 mg/kg/injection, schedule: Q04DX003 (sc), vehicle: saline with Tween-80
  T/C: 26 % of control
dose: 100.0 mg/kg/injection, schedule: Q04DX003 (sc), vehicle: saline with Tween-80
  T/C: 38 % of control
[1]
  T/C: -3 % of control
[3]
  T/C: -19 % of control

## Cn1/c2cc/c1=C(\c1ccc(S(=O)(=O)O)cc1)c1ccc([n-]1)/C(c1ccc(S(=O)(=O)O)cc1)=c1/cc/c([nH]1)=C(\c1ccc(S(=O)(=O)O)cc1)c1ccc([n-]1)/C=2c1ccc(S(=O)(=O)O)cc1.O.O=S(=O)(O)C(F)(F)F.[Cu+2]
[10]
  T/C: 54 % of control
[11]
  T/C: 94 % of control

## CCCCCCCCCCCC(=O)NC1CC(O[C@H]2C[C@](O)(C(=O)CO)Cc3c(O)c4c(c(O)c32)C(=O)c2c(OC)cccc2C4=O)OC(C)C1O (some centres not stated)
dose: 100.0 mg/kg/injection, schedule: Q01DX010 (sc), vehicle: water
  T/C: 59 % of control
dose: 200.0 mg/kg/injection, schedule: Q01DX010 (sc), vehicle: water
  T/C: 97 % of control
dose: 400.0 mg/kg/injection, schedule: Q01DX010 (sc), vehicle: water
  T/C: 53 % of control

## CC(C)=CCNc1ncnc2c1ncn2C1OC(CO)C(O)C1O (configuration not stated)
dose: 100.0 mg/kg/injection, schedule: Q04DX003 (sc), vehicle: suspension in saline
  T/C: 122 % of control
